Results from the NIST ThermoML archive (doi:10.1016/j.jct.2019.06.005).

Test: xn = mol fraction of the nth substance listed
Conditions: for surface tension liquid-gas: Maximal bubble pressure; for mass density: 100 kPa, Liquid, Vibrating tube method

COCC[n+]1ccn(C)c1.O=S(=O)([N-]S(=O)(=O)C(F)(F)F)C(F)(F)F + CO
Conditions | mass density [kg/m3] | surface tension liquid-gas [mN/m]
288.15 K, x1 = 0.1004 | 1121.11 | 26.6
288.15 K, x1 = 0.2003 | 1263.18 | 28.5
288.15 K, x1 = 0.2814 | 1330.61 | 29.6
288.15 K, x1 = 0.4004 | 1394.19 | 31.5
288.15 K, x1 = 0.4987 | 1429.08 | 33.1
288.15 K, x1 = 0.5949 | 1454.46 | 34.8
288.15 K, x1 = 0.704 | 1476.43 | 36.9
288.15 K, x1 = 0.8042 | 1492.31 | 38.6
288.15 K, x1 = 0.9003 | 1504.71 | 40.1
288.15 K, x1 = 1 | 1515.3 | 41.4
293.15 K, x1 = 0.1004 | 1116 | 26.2
293.15 K, x1 = 0.2003 | 1257.97 | 28.1
293.15 K, x1 = 0.2814 | 1325.38 | 29.3
293.15 K, x1 = 0.4004 | 1388.96 | 31.1
293.15 K, x1 = 0.4987 | 1423.86 | 32.8
293.15 K, x1 = 0.5949 | 1449.25 | 34.5
293.15 K, x1 = 0.704 | 1471.24 | 36.6
293.15 K, x1 = 0.8042 | 1487.14 | 38.3
293.15 K, x1 = 0.9003 | 1499.56 | 39.8
293.15 K, x1 = 1 | 1510.15 | 41.2
298.15 K, x1 = 0.1004 | 1110.88 | 25.7
298.15 K, x1 = 0.2003 | 1252.76 | 27.7
298.15 K, x1 = 0.2814 | 1320.14 | 28.9
298.15 K, x1 = 0.4004 | 1383.74 | 30.8
298.15 K, x1 = 0.4987 | 1418.64 | 32.5
298.15 K, x1 = 0.5949 | 1444.06 | 34.2
298.15 K, x1 = 0.704 | 1466.08 | 36.4
298.15 K, x1 = 0.8042 | 1481.99 | 38.1
298.15 K, x1 = 0.9003 | 1494.42 | 39.6
298.15 K, x1 = 1 | 1505.03 | 41
303.15 K, x1 = 0.1004 | 1105.74 | 25.2
303.15 K, x1 = 0.2003 | 1247.54 | 27.3
303.15 K, x1 = 0.2814 | 1314.92 | 28.6
303.15 K, x1 = 0.4004 | 1378.52 | 30.5
303.15 K, x1 = 0.4987 | 1413.44 | 32.2
303.15 K, x1 = 0.5949 | 1438.88 | 34
303.15 K, x1 = 0.704 | 1460.92 | 36.1
303.15 K, x1 = 0.8042 | 1476.85 | 37.8
303.15 K, x1 = 0.9003 | 1489.3 | 39.4
303.15 K, x1 = 1 | 1499.92 | 40.7
308.15 K, x1 = 0.1004 | 1100.6 | 24.6
308.15 K, x1 = 0.2003 | 1242.33 | 26.9
308.15 K, x1 = 0.2814 | 1309.69 | 28.2
308.15 K, x1 = 0.4004 | 1373.31 | 30.1
308.15 K, x1 = 0.4987 | 1408.26 | 31.9
308.15 K, x1 = 0.5949 | 1433.72 | 33.7
308.15 K, x1 = 0.704 | 1455.77 | 35.8
308.15 K, x1 = 0.8042 | 1471.73 | 37.6
308.15 K, x1 = 0.9003 | 1484.2 | 39.1
308.15 K, x1 = 1 | 1494.83 | 40.5
313.15 K, x1 = 0.1004 | 1095.44 | 24.2
313.15 K, x1 = 0.2003 | 1237.11 | 26.5
313.15 K, x1 = 0.2814 | 1304.47 | 27.8
313.15 K, x1 = 0.4004 | 1368.12 | 29.9
313.15 K, x1 = 0.4987 | 1403.08 | 31.6
313.15 K, x1 = 0.5949 | 1428.57 | 33.4
313.15 K, x1 = 0.704 | 1450.64 | 35.6
313.15 K, x1 = 0.8042 | 1466.63 | 37.4
313.15 K, x1 = 0.9003 | 1479.12 | 38.9
313.15 K, x1 = 1 | 1489.77 | 40.3
318.15 K, x1 = 0.1004 | 1090.28 | 23.8
318.15 K, x1 = 0.2003 | 1231.89 | 26.1
318.15 K, x1 = 0.2814 | 1299.25 | 27.5
318.15 K, x1 = 0.4004 | 1362.93 | 29.6
318.15 K, x1 = 0.4987 | 1397.92 | 31.4
318.15 K, x1 = 0.5949 | 1423.44 | 33.2
318.15 K, x1 = 0.704 | 1445.47 | 35.4
318.15 K, x1 = 0.8042 | 1461.52 | 37.1
318.15 K, x1 = 0.9003 | 1474.06 | 38.7
318.15 K, x1 = 1 | 1484.72 | 40.1

COCC[n+]1ccn(C)c1.O=S(=O)([N-]S(=O)(=O)C(F)(F)F)C(F)(F)F + CCO
Conditions | mass density [kg/m3] | surface tension liquid-gas [mN/m]
288.15 K, x1 = 0.1003 | 1055.22 | 24.8
288.15 K, x1 = 0.2 | 1197.64 | 25.9
288.15 K, x1 = 0.2972 | 1285.52 | 27.5
288.15 K, x1 = 0.401 | 1350.45 | 29.3
288.15 K, x1 = 0.5028 | 1396.83 | 31.5
288.15 K, x1 = 0.5982 | 1430.26 | 33.8
288.15 K, x1 = 0.6973 | 1457.78 | 35.8
288.15 K, x1 = 0.8111 | 1483.2 | 38.2
288.15 K, x1 = 0.8991 | 1499.41 | 39.7
288.15 K, x1 = 1 | 1515.3 | 41.4
293.15 K, x1 = 0.1003 | 1050.42 | 24.4
293.15 K, x1 = 0.2 | 1192.63 | 25.5
293.15 K, x1 = 0.2972 | 1280.42 | 27.1
293.15 K, x1 = 0.401 | 1345.31 | 29
293.15 K, x1 = 0.5028 | 1391.67 | 31.3
293.15 K, x1 = 0.5982 | 1425.1 | 33.5
293.15 K, x1 = 0.6973 | 1452.62 | 35.5
293.15 K, x1 = 0.8111 | 1478.06 | 38
293.15 K, x1 = 0.8991 | 1494.28 | 39.5
293.15 K, x1 = 1 | 1510.15 | 41.2
298.15 K, x1 = 0.1003 | 1045.8 | 23.9
298.15 K, x1 = 0.2 | 1187.81 | 25
298.15 K, x1 = 0.2972 | 1275.51 | 26.8
298.15 K, x1 = 0.401 | 1340.28 | 28.7
298.15 K, x1 = 0.5028 | 1386.61 | 31
298.15 K, x1 = 0.5982 | 1420.05 | 33.2
298.15 K, x1 = 0.6973 | 1447.54 | 35.3
298.15 K, x1 = 0.8111 | 1472.95 | 37.7
298.15 K, x1 = 0.8991 | 1489.16 | 39.2
298.15 K, x1 = 1 | 1505.03 | 41
303.15 K, x1 = 0.1003 | 1040.76 | 23.5
303.15 K, x1 = 0.2 | 1182.58 | 24.7
303.15 K, x1 = 0.2972 | 1270.2 | 26.5
303.15 K, x1 = 0.401 | 1335.02 | 28.4
303.15 K, x1 = 0.5028 | 1381.37 | 30.7
303.15 K, x1 = 0.5982 | 1414.81 | 33
303.15 K, x1 = 0.6973 | 1442.35 | 35
303.15 K, x1 = 0.8111 | 1467.8 | 37.5
303.15 K, x1 = 0.8991 | 1484.03 | 39
303.15 K, x1 = 1 | 1499.92 | 40.7
308.15 K, x1 = 0.1003 | 1035.9 | 23.1
308.15 K, x1 = 0.2 | 1177.54 | 24.4
308.15 K, x1 = 0.2972 | 1265.09 | 26.2
308.15 K, x1 = 0.401 | 1329.88 | 28.1
308.15 K, x1 = 0.5028 | 1376.24 | 30.4
308.15 K, x1 = 0.5982 | 1409.68 | 32.7
308.15 K, x1 = 0.6973 | 1437.23 | 34.8
308.15 K, x1 = 0.8111 | 1462.7 | 37.2
308.15 K, x1 = 0.8991 | 1478.94 | 38.8
308.15 K, x1 = 1 | 1494.83 | 40.5
313.15 K, x1 = 0.1003 | 1031.02 | 22.6
313.15 K, x1 = 0.2 | 1172.49 | 24
313.15 K, x1 = 0.2972 | 1259.99 | 25.8
313.15 K, x1 = 0.401 | 1324.76 | 27.8
313.15 K, x1 = 0.5028 | 1371.12 | 30.1
313.15 K, x1 = 0.5982 | 1404.57 | 32.5
313.15 K, x1 = 0.6973 | 1432.14 | 34.5
313.15 K, x1 = 0.8111 | 1457.62 | 37
313.15 K, x1 = 0.8991 | 1473.87 | 38.6
313.15 K, x1 = 1 | 1489.77 | 40.3
318.15 K, x1 = 0.1003 | 1026.12 | 22.3
318.15 K, x1 = 0.2 | 1167.43 | 23.7
318.15 K, x1 = 0.2972 | 1254.88 | 25.5
318.15 K, x1 = 0.401 | 1319.64 | 27.5
318.15 K, x1 = 0.5028 | 1366.01 | 29.9
318.15 K, x1 = 0.5982 | 1399.48 | 32.2
318.15 K, x1 = 0.6973 | 1427.07 | 34.3
318.15 K, x1 = 0.8111 | 1452.56 | 36.8
318.15 K, x1 = 0.8991 | 1468.81 | 38.3
318.15 K, x1 = 1 | 1484.72 | 40.1
